In US9000183B2, “Cyclohexane-1,2′-indene-1′,2″-imidazol compounds and their use as BACE inhibitors” (AstraZeneca AB, priority 2012, dated 2015):

Assays:
human β-Secretase [1] = molecular target: T1, human β-Secretase (Homo sapiens (Human), UniProt P56817); assay: Diluted TR-FRET assay; format: biochemical; details: 50 times less enzyme, 6.5 h reaction time; read-out: IC50 in TR-FRET assay (IC50 from the diluted FRET assay)
Method: (§1) The cDNA for the soluble part of the human β-Secretase (AA 1-AA 460) was cloned using the ASP2-Fc10-1-IRES-GFP-neoK mammalian expression vector. The gene was fused to the Fc domain of IgG1 (affinity tag) and stably cloned into HEK 293 cells.
(§2) The enzyme (truncated form) was diluted to 6 μg/mL (stock 1.3 mg/mL) and the TruPoint BACE1 Substrate to 200 nM (stock 120 μM) in reaction buffer (NaAcetate, chaps, triton x-100, EDTA pH4.5). Enzyme and compound in dimethylsulphoxide (final DMSO concentration 5%) was mixed and pre-incubated for 10 minutes at RT. Substrate was then added and the reaction was incubated for 15 minutes at RT. The reaction was stopped with the addition of 0.35 vol Stop solution (NaAcetate, pH 9). The fluorescence of the product was measured on a Victor II plate reader with excitation wavelengths of 340-485 nm and emission wavelengths of 590-615 nm. […] The dimethylsulphoxide control, instead of test compound, defined the 100% activity level and 0% activity was defined by wells lacking enzyme (replaced with reaction buffer) or by a saturating dose of a known inhibitor, 2-amino-6-[3-(3-methoxyphenyl)phenyl]-3,6-dimethyl-5H-pyrimidin-4-one.
Compounds with a high affinity were further tested in a diluted TR-FRET assay, conditions as described above for the TR-FRET assay, but with 50 times less enzyme and a 6.5 h long reaction time at r.t. in the dark.

[2] = test system: sAPPβ release, SH-SY5Y cells; assay: sAPPβ release assay; format: cell-based; details: 17 h incubation
Method: Thaw cells and seed at a conc. of around 10000 cells/well in DMEM/F-12 with Glutamax, 10% FCS and 1% non-essential amino acids to a 384-well tissue culture treated plate, […] cell susp/well. The cell plates were then incubated for 7-24 h at 37° C., 5% CO2. The cell medium was removed, followed by addition of 30 μL compound diluted in DMEM/F-12 with Glutamax, 10% FCS, 1% non-essential amino acids and 1% PeSt to a final conc. of 1% DMSO. The compounds were incubated with the cells for 17 h (overnight) at 37° C., 5% CO2. Meso Scale Discovery (MSD) plates were used for the detection of sAPPβ release. MSD sAPPβ plates were blocked in 1% BSA in Tris wash buffer (40 μL/well) for 1 h on shake at r.t. and washed 1 time in Tris wash buffer (40 μL/well). 20 μL of medium was transferred to the pre-blocked and washed MSD sAPPβ microplates, and the cell plates were further used in an ATP assay to measure cytotoxicity. The MSD plates were incubated with shaking at r.t. for 2 h and the media discarded. 10 μL detection antibody was added (1 nM) per well followed by incubation with shaking at r.t. for 2 h and then discarded. 40 μL Read Buffer was added per well and the plates were read in a SECTOR Imager.

human β-Secretase [3] = molecular target: T1, human β-Secretase; assay: TR-FRET assay; format: biochemical
Method: The β-secretase enzyme used in the TR-FRET is prepared as follows:
as §1, §2

T1 sequence (P56817 22-460): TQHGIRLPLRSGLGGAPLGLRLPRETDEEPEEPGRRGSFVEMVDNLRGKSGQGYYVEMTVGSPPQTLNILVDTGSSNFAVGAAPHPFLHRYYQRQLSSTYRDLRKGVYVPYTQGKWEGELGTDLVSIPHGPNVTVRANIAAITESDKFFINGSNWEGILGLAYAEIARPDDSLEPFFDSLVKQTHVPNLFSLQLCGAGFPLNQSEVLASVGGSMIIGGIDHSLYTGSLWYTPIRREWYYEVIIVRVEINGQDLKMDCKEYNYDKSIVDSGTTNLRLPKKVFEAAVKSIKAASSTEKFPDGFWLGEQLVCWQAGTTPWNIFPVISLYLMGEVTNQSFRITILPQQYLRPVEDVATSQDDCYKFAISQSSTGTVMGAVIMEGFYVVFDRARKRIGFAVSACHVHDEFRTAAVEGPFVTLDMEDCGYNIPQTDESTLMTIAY

SMILES | IC50 (human β-Secretase [1]) [nM] | IC50 [2] [nM] | IC50 (human β-Secretase [3]) [nM] | IC50 ([2]; Homo sapiens) [nM]
CO[C@H]1CC[C@]2(CC1)Cc1cc(F)c(-c3cc(Cl)cc(C#N)c3)cc1[C@@]21N=C(C)C(N)=N1 (single isomer, unassigned; isomer 1) [6 Isomer 1] | 2.4 | – | – | –
CO[C@H]1CC[C@]2(CC1)Cc1cc(F)c(-c3cc(F)cc(C#N)c3)cc1[C@@]21N=C(C)C(N)=N1 (single isomer, unassigned; isomer 1) [9 Isomer 1] | 13 | 7.4 | – | –
CO[C@H]1CC[C@]2(CC1)Cc1cc(F)c(-c3cc(Cl)cc(C#N)c3)cc1[C@]21N=C(C)C(N)=N1 (single isomer, unassigned; isomer 2) [6 Isomer 2] | – | – | > 4300 | –
CO[C@H]1CC[C@]2(CC1)Cc1cc(F)c(-c3cc(F)cc(C#N)c3)cc1[C@]21N=C(C)C(N)=N1 (single isomer, unassigned; isomer 2) [9 Isomer 2] | – | – | > 5000 | –
CO[C@H]1CC[C@]2(CC1)Cc1cc(C)c(Br)cc1C21N=C(C)C(N)=N1 (some centres unmarked) [Example 1, (1r,4r)-6′-Bromo-4-methoxy-5′,5″-dimethyl-3′H-dispiro[cyclohexane-1,2′-indene-1′,2″-imidazol]-4″-amine] | – | – | 1660 | –
CC#Cc1cncc(-c2cc3c(cc2C)C[C@]2(CC[C@@H](OC)CC2)C32N=C(C)C(N)=N2)c1 (some centres unmarked) [Example 2, (1r,4r)-4-Methoxy-5′,5″-dimethyl-6′-[5-(prop-1-yn-1-yl)pyridin-3-yl]-3′H-dispiro[cyclohexane-1,2′-indene-1′,2″-imidazol]-4″-amine] | 15 | – | – | 17
CO[C@H]1CC[C@]2(CC1)Cc1cc(C)c(-c3cc(Cl)cc(C#N)c3)cc1C21N=C(C)C(N)=N1 (some centres unmarked) [Example 3, 3-[(1r,4r)-4″-Amino-4-methoxy-5′,5″-dimethyl-3′H-dispiro[cyclohexane-1,2′-indene-1′,2″-imidazol]-6′-yl]-5-chlorobenzonitrile] | 24 | – | – | 12
COC1CCC2(CC1)Cc1cc(F)c(Br)cc1C21N=C(C)C(N)=N1 (centres unmarked) [Example 4, 6′-Bromo-5′-fluoro-4-methoxy-5″-methyl-3′H-dispiro[cyclohexane-1,2′-indene-1′,2″-imidazol]-4″-amine] | – | – | 516 | –
CO[C@H]1CC[C@]2(CC1)Cc1cc(F)c(-c3cc(Cl)cc(C#N)c3)cc1C21N=C(C)C(N)=N1 (some centres unmarked) [Example 5, 3-[(1s,4s)-4″-Amino-5′-fluoro-4-methoxy-5″-methyl-3′H-dispiro[cyclohexane-1,2′-indene-1′,2″-imidazol]-6′-yl]-5-chlorobenzonitrile] | – | – | 23 | –
CO[C@H]1CC[C@]2(CC1)Cc1cc(F)c(-c3cncc(Cl)c3)cc1C21N=C(C)C(N)=N1 (some centres unmarked) [Example 7, (1r,4r)-6′-(5-Chloropyridin-3-yl)-5′-fluoro-4-methoxy-5″-methyl-3′H-dispiro[cyclohexane-1,2′-indene-1′,2″-imidazol]-4″-amine] | – | – | 36 | 3
CO[C@H]1CC[C@]2(CC1)Cc1cc(F)c(-c3cc(F)cc(C#N)c3)cc1C21N=C(C)C(N)=N1 (some centres unmarked) [Example 8, 3-[(1r,4r)-4″-Amino-5′-fluoro-4-methoxy-5″-methyl-3′H-dispiro[cyclohexane-1,2′-indene-1′,2″-imidazol]-6′-yl]-5-fluorobenzonitrile] | – | – | 23 | 4.8
CO[C@H]1CC[C@]2(CC1)Cc1cc(F)c(OCCCF)cc1C21N=C(C)C(N)=N1 (some centres unmarked) [Example 10, 5′-Fluoro-6′-(3-fluoropropoxy)-4-methoxy-5″-methyl-3′H-dispiro[cyclohexane-1,2′-indene-1′,2″-imidazol]-4″-amine] | – | – | 39 | –
